Laboratory results from publication PMC7966987, “Insights into the catalytic properties of the mitochondrial rhomboid protease PARL” (The Journal of Biological Chemistry, 2021).
“And” between values parts separate entries of the source, which are not always exact repeats. Identical values can stand only once. “Also recorded” adds a separate entry of the source.

Legend:
Assay type in all cases: biochemical
PARLΔ77 [1] = molecular target: T1, PARLΔ77 (Homo sapiens, UniProt Q9H300); test: IQ-peptide substrate cleavage kinetics, PARLΔ77 in proteoliposomes; settings: PARLΔ77 in PLs (E. coli polar lipids), 50 mM Tris-HCl pH 7.0, 150 mM NaCl, 10% glycerol, no DDM, 37 °C, mean ± SEM
T1 construct: GFP-hexahistidine (behind a TEV cleavage site) (C, cleaved yes); made in house; host or cells: Pichia pastoris
T1 sequence (Q9H300 78-379): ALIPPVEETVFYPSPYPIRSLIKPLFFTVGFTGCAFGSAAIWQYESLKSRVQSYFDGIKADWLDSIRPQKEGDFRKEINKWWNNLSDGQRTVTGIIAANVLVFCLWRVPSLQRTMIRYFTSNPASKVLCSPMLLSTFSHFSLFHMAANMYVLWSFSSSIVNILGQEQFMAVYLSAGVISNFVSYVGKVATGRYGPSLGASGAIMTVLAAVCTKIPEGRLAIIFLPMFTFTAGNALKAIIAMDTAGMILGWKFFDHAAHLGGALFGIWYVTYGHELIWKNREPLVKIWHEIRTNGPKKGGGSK

PARLΔ77 [2] = molecular target: T1, PARLΔ77; test: IQ-peptide substrate cleavage kinetics, β-cleavage PARLΔ77 in detergent; settings: PARLΔ77 0.8 μM in 0.1% DDM with CL, 50 mM Tris-HCl pH 7.0, 150 mM NaCl, 10% glycerol, 5% DMSO, 37 °C, fluorescence; mean ± SEM
Source text: (§1) To further evaluate the cleavage of other known substrates of PARL, we adopted a more facile system to examine cleavage of multiple substrates and generated internally quenched (IQ) peptide substrates ([25], [36], [37], [38]) based on the amino acids flanking the PARL cleavage sites of PINK1 ([39]), PGAM5 ([8]), and Smac/Diablo ([11]). […] The assay allowed us to determine the catalytic parameters for the three primary PARL substrates and examine the substrate specificity (Fig. 2, Tables S2–S4).
(§2) Assays with FRET-PINK1^70–134 were conducted as previously described ([26]). For EDANS/Dabcyl 10-mer IQ peptides (PINK1, PGAM5, Smac/Diablo), lyophilized peptides were initially dissolved in DMSO to obtain a stock solution. The IQ peptide substrates in a concentration range of 0.1–70 μM were incubated with activity assay buffer (50 mM Tris-HCl pH 7.0, 150 mM NaCl, 10% glycerol, 0.1% DDM) in a 384-well black-bottomed plate at 37 °C for 30 min in a multiwell plate reader (SynergyMx, BioTek). For all concentrations of IQ peptide, the DMSO was kept constant at 5%. Following preincubation, PARL was added to a final concentration of 0.8 μM to initiate the cleavage reaction. Fluorescence readings were taken every 3 min over a 3 h time course at ƛex = 336 nm and ƛem = 490 nm. The initial velocity was determined from the fluorescence readings over the time course. For each substrate concentration, a no-enzyme control was subtracted to eliminate background fluorescence changes not related to substrate cleavage. Relative fluorescence units were converted to concentration (μM) by determining the maximum change in fluorescence observed for each substrate concentration when fully digested. GraphPad Prism software was used for Michaelis–Menten analysis of kinetic curves. All kinetic data were obtained using at least three biological replicates (different enzyme preparations) with technical duplicates for each experiment. For kinetic measurements in detergent with all three substrates, the activity assays were repeated at least five times. In addition, after each protease purification, the quality control of purified PARL was controlled by measuring its enzymatic activity. Minimum of three experimental replicates with two technical replicates were used for data analysis.

human PARLΔ77 = test: as above; settings: for fold change Km/kcat, PARLΔ77/PARLΔ55 / fold change kcat, PARLΔ77/PARLΔ55: PARL in DDM; for turnover rate with PARLΔ77 compared with PARLΔ55 / ranking of substrate cleavage: in detergent; for ranking of substrate cleavage: PARLΔ55 and PARLΔ77, by kcat or kcat/KM
Source text: as §1, §2

PARLΔ77 [3] = molecular target: T1, PARLΔ77; test: IQ-peptide substrate cleavage kinetics, PARLΔ77 in proteoliposomes; settings: for ranking of substrate cleavage: in proteoliposomes, by kcat, KM or kcat/KM
Source text: To assess the activity of recombinant PARL toward known substrates in a lipid bilayer, full-length and β-truncated PARL were reconstituted in proteoliposomes (PLs) using Escherichia coli lipids that closely resemble the composition of the IMM ([31]). We determined that the EDANS/Dabcyl - FRET tags prevented incorporation of the substrates into PL; however, the substrate could still be cleaved since the active site is proposed to be near the lipid/water interface ([40], [41]) analogous to bacterial rhomboid proteases (Fig. 1). To calculate the specific activity of the protease, we quantified the fraction of PARL in the PLs with an outward facing active site using a membrane […] activity-based TAMRA-labeled fluorophosphonate probe ([42]). […] These values were used to calculate specific activity of the PARL protease. Next, we compared cleavage of three IQ-peptide substrates by reconstituted full-length mature PARLΔ55 and the β-truncated form, PARLΔ77 (Fig. 3, Tables S5 and S6).
as §2
E. coli polar lipids (Avanti), 400 μg in chloroform, were dried under nitrogen stream in a glass tube to yield a thin film of lipid. The tube was incubated overnight in a desiccator to completely remove all traces of solvent. In total, 50 μl of water and DDM detergent was added to the lipid film for resuspension at room temperature for 10 min, followed by the addition of purified PARL (400 μg) in 50 mM Tris-HCl, pH 8.0, 150 mM NaCl, 20% glycerol, 0.1% DDM, to yield the final weight ratio of 1 PARL:1 lipid:2 detergent. The detergent was slowly removed by the addition of SM2 Biobeads (Bio-Rad) while stirring on ice for 6 h to allow for the generation of proteoliposomes (PL); the process was controlled by the regimen of Biobead addition. To purify the PL, 50%:20% sucrose density gradient ultracentrifugation was used. A TAMRA probe (ThermoFisher) was used to determine the orientation of reconstituted PARL, which specifically and covalently labels serine residues of an enzymatically active serine protease. In total, 2 μM of TAMRA probe was added to PL samples and incubated for 1 h, allowing the TAMRA probe to label only the outward-facing accessible active sites. […]

Substance | Km (PARLΔ77 [1]) | kcat (turnover rate) (PARLΔ77 [1]) | kcat/KM (catalytic efficiency) (PARLΔ77 [1]) | Km (PARLΔ77 [2]) | kcat (turnover rate) (PARLΔ77 [2]) | kcat/KM (catalytic efficiency) (PARLΔ77 [2]) | fold change Km/kcat, PARLΔ77/PARLΔ55 (human PARLΔ77) | fold change kcat, PARLΔ77/PARLΔ55 (human PARLΔ77) | turnover rate with PARLΔ77 compared with PARLΔ55 (human PARLΔ77) | kcat/KM (catalytic efficiency) (PARLΔ77 [1]; listed as PGAM5) | kcat/KM (catalytic efficiency) (PARLΔ77 [1]; listed as PGAM520-29) | ranking of substrate cleavage (human PARLΔ77) | ranking of substrate cleavage (PARLΔ77 [3]) | kcat (turnover rate) (PARLΔ77 [1]; listed as Smac/Diablo) | kcat (turnover rate) (PARLΔ77 [1]; listed as Smac/Diablo51-60) | turnover rate with PARLΔ77 compared with PARLΔ55 (human PARLΔ77; listed as IQ-Smac/Diablo) | turnover rate with PARLΔ77 compared with PARLΔ55 (human PARLΔ77; listed as Smac/Diablo) | turnover rate (PARLΔ77 [3]; PARLΔ77 in proteoliposomes)
(DABCYL)-AVFLAFGLGL-Glu(EDANS) [IQ-PINK1^99–108, internally quenched DABCYL/EDANS peptide substrate based on PINK1 PARL cleavage site] | 8 ± 1 µM | 0.00778 ± 0.00056 s⁻¹ | 972 ± 170 M⁻¹ s⁻¹ | 3.3 ± 0.5 µM | 0.000361 ± 2.8e-05 s⁻¹ | 110 ± 28 M⁻¹ s⁻¹ | 2 fold | 3 fold | increased | – | – | – | – | – | – | – | – | –
(DABCYL)-AVFLSAVAVG-Glu(EDANS) [IQ-PGAM5^20–29, internally quenched DABCYL/EDANS peptide substrate based on PGAM5 PARL cleavage site] | 0.8 ± 0.2 µM | 0.00583 ± 0.00028 s⁻¹ | – | 1.6 ± 0.2 µM | 0.000272 ± 1.1e-05 s⁻¹ | 170 ± 28 M⁻¹ s⁻¹ | 0.6 fold | 2 fold | increased | 7220 ± 2200 M⁻¹ s⁻¹ | 7220 ± 2200 M⁻¹ s⁻¹ | most efficiently cleaved | the preferred substrate with the lowest KM and the highest catalytic efficiency; also recorded: cleaved with the highest efficiency | – | – | – | – | –
(DABCYL)-GVT LCAVPIA-Glu(EDANS) [IQ-Smac/Diablo^51–60, internally quenched DABCYL/EDANS peptide substrate based on Smac/Diablo PARL cleavage site] | 17 ± 4 µM | – | 944 ± 280 M⁻¹ s⁻¹ | 5 ± 1 µM | 0.000333 ± 2.8e-05 s⁻¹ | 83 ± 28 M⁻¹ s⁻¹ | 1 fold | 1 fold | – | – | – | fastest cleaved | the fastest | 0.0161 ± 0.0019 s⁻¹ | 0.0161 ± 0.0019 s⁻¹ | no significant difference | remained unchanged | 1.0 ± 0.1 min⁻¹ and 1 min⁻¹
